Legend:
[1] = in vivo
T. congolense KONT 2/133 = assay: Cattle efficacy for compound 1, SC (Clinvet); format: in vivo, Trypanosoma congolense; conditions: for Animals negative for parasites / Animals positive for parasites: 5 mg/kg SC twice 12 h apart
Source text: However, following the cessation of treatment, parasitaemia quickly re-emerged to such an extent that after 4 days, all calves were positive. It should be noted that in this study, calves were infected with a highly virulent T. congolense isolate known to be resistant to established anti-trypanosomal agents diminazene and isometamidium. Testing compounds in this model represents a rigorous test of efficacy; thus, the observed reduction in parasite numbers in calves dosed with compound 1 was very encouraging. […]
3.3 Cattle efficacy for compound 1 (Clinvet)
(§1) In each of the cattle efficacy studies (3.3, 3.4 and 3.5), efficacy was assessed primarily on absence of recrudescence of parasitaemia for 100 days after treatment administration together with improvements in Packed Cell Volume, body weight and clinical signs of infected compared with uninfected animals. Assessment of parasitaemia was based on phase contrast buffy coat examinations and confirmation by PCR at 100 d.
Friesian-Holstein calves, weaned for at least 2 months and with a minimum age of 4 months, housed in a fly-proof building, were infected with Trypanosoma conglense (savannah) KONT 2/133, at a dose of 110,000 parasites (study day 0) via IV infusion. The parasites were obtained from a donor calf. This isolate is resistant to diminazene (20 mg/kg) and isometamidium (1 mg/kg) in cattle, and diminazene (7 mg/kg) and isometamidium (>1 mg/kg) in mice. Calves were parasitaemic by study day 6. Calves (n = 5) were treated with compound 1 (5 mg/kg, SC, twice 12 h apart) on study […]
day at 25 mg/ml in NMP/ 2-pyrrolidinone/ PEG400 water 10/40/30/20. Control groups were comprised of un-infected calves, infected but un-treated calves (n = 6) and calves treated with diminazene (n = 3) or isometamidium (n = 3). The calves were randomised to treatments. Calves were monitored daily for parasitaemia and packed cell volume (PCV) via blood sampling and through […]
One day after treatment, 80% of the animals in the treatment group were negative for parasites.
After 3 d, 100% of the animals in the treatment groups were negative for parasites. After 5 d, 40% of the animals were positive for parasites. […]

[2] = test system: T. congolense (KONT2/133); assay: Cattle efficacy for compound 2, intravenous infusion (Clinvet), T. congolense; format: in vivo, Trypanosoma congolense; conditions: Friesian-Holstein cattle infected with T. congolense; n = 4; at 100 days
Method: Unfortunately, an injection site tolerability issue arose during the pharmacokinetic study in cattle that was not evident in rats. […] To circumvent these issues, compound 2 was assessed in an in vivo proof of concept efficacy study in Friesian-Holstein cattle using an IV infusion regimen. The study was conducted in four animals infected with T. congolense (KONT2/133) and four animals infected with T. vivax (STIB719). Three additional animals infected with each strain formed the vehicle control groups and were dosed IV once daily with saline. Pharmacokinetic modeling was used to define a dosing regimen that mimics the blood concentration–time profile that delivered cure in mice (10 mg/kg SC once daily for 2 days, with a Ctrough of >20 ng/mL (>38 nM)). A continuous infusion over 36 h and two loading doses 24 h apart were required. […]
Response to treatment was determined by monitoring parasitaemia twice a week until day 21. […]
as §1, with “Assessment of parasitaemia was based on phase contrast buffy coat examinations and confirmation by PCR at 100 d.” left out

[3] = 5 mg/kg SC given twice at 12 h intervals

| SMILES | Mouse oral MTD ([1]; po, 3 days) [mg/kg] | Tolerability, maximum tolerated dose study ([1]; mouse, sc) | Parasitaemia in calves (T. congolense KONT 2/133; [3]) | Time after cessation of treatment until all calves were positive (T. congolense KONT 2/133; [3]) [days] | Animals negative for parasites (T. congolense KONT 2/133; after 3 d) [%] | Animals positive for parasites (T. congolense KONT 2/133; after 5 d) [%] | Animals positive for parasites (T. congolense KONT 2/133; after 6 d) [%] | Animals positive for parasites (T. congolense KONT 2/133; after 8 days) [%] | Animals negative for parasites (T. congolense KONT 2/133; one day after treatment) [%] | Efficacy in cattle, IV bolus and infusion [2] |
| --- | --- | --- | --- | --- | --- | --- | --- | --- | --- | --- |
| CC(C)CS(=O)(=O)N[C@H]1CC[C@H](Nc2nc(N)c(C(=O)c3c(F)cccc3F)s2)CC1 [Compound 1, N-((trans)-4-((4-Amino-5-(2,6-difluorobenzoyl)thiazol-2-yl)amino)cyclohexyl)-2-methylpropane-1-sulfonamide] | >300 | No tolerability issues | suppressed below the level of detection | 4 | 100 | 40 | 80 | 100 | 80 | – |
| CC(C)CS(=O)(=O)N[C@H]1CC[C@H](Nc2nc(N)c(C(=O)c3c(F)cc(CN(C)C)cc3F)s2)CC1 [Compound 2, N-(trans)-[4-[[4-Amino-5-[4-(dimethylaminomethyl)-2,6-difluoro-benzoyl]thiazol-2-yl]amino]cyclohexyl]-2-methyl-propane-1-sulfonamide] | – | – | – | – | – | – | – | – | – | cured |

Reference: paper PMC9014415, “Repositioning of a Diaminothiazole Series Confirmed to Target the Cyclin-Dependent Kinase CRK12 for Use in the Treatment of African Animal Trypanosomiasis” (Journal of Medicinal Chemistry, 2022)
